The source of these data is publication PMC11873239, “A covalent chemical probe for Chikungunya nsP2 cysteine protease with antialphaviral activity and proteome-wide selectivity” (Scientific Reports, 2025).

In general, IC50 refers to the point on the concentration scale where inhibition reaches its midpoint.

Like-named read-outs stand apart in the source and are kept apart here. Bounds are passed on as bounds.

For assay [1], the target named is CHIKV nsP2pro (Chikungunya virus, UniProt F2YI08). As to conditions: read-out: IC50 (CHIKV nsP2pro inhibition); cited from earlier work.
Assay [2] relates to EEEV-nLuc replicon. The assay can be described thus: microbe, parasite or virus in culture. As to conditions: Eastern equine encephalitis virus, Fibroblast, in Homo sapiens, 24 h, read-out: IC50 (EEEV-nLuc replicon). In general terms: Replicon systems follow genome replication, usually without infectious particles.
The test system of assay [3] is 20 human cysteine proteases and three viral cysteine proteases.
Assay [4] relates to EEEV-nLuc replicon. The settings on record: read-out: IC50 (EEEV-nLuc replicon).

With `CCOc1ccccc1-c1cc2n(n1)C(CS(C)(=O)=O)CNC2=O` (stereo not shown) [Compound 2], the IC50 in assay [1] is greater than 40000 nM.

Regarding `CCOc1ccccc1-c1cc(C(=O)NC/C=C/S(C)(=O)=O)on1` [Compound 3, (E)−3-(2-ethoxyphenyl)-N-(3-(methylsulfonyl)allyl)isoxazole-5-carboxamide], the IC50 in assay [2] and in assay [4] was 930 nM in each case. Moreover, the “inhibition across cysteine protease panel” value in assay [3] is “no significant inhibition”.
